Measured values reported in patent publication US7297481B2, “Detection of DNA damage” (ESA Biosciences, Inc., priority 2000, dated 2007).

What was measured:
[1] = Urine 8OH2′dG levels in individuals exposed to chemicals; assay type: in vivo, human; conditions: individuals exposed to the substance
C. Elegans = assay: 8OH2′dG production (DNA damage rate) in C. Elegans culture; assay type: in vivo
Text: 2. Relevant to the use of DNA damage rate measurements to cancer diagnosis I have observed that in C. Elegans culture there is a burst of 8OH2′dG production during the stage of rapid replication of the gonadal cells. In similar experiments I observed that a toxin (3 nitro propionic acid, 3NP) increased the rate of DNA damage during replication.
4. […] In rapid cell replication in C. Elegans, in 3NP insulted C.

[2] = Effect of simple antioxidants on levels of 8OH2′dG; assay type: in vivo
[3] = Dialysis studies of 8OH2′dG in extracellular matrix, probes in brain and muscle; assay type: in vivo; conditions: extracellular matrix vs free levels inside cellular material, brain and muscle of rat and mouse
Text: (§1) 1. Dialysis studies of 8OH2′dG in extracellular matrix with probes placed in brain and muscle of rat and mouse to measure the rate of production and excretion compared with the free levels inside the cellular material confirm that excretion from the cells is rapid. Similarly, comparison of CSF, Plasma and urinary levels of ca 1:10:2000 in ca 100 ALS and control subjects confirm that the rate of clearance from the body is high.

[4] = Comparison of CSF, plasma, urine, saliva and sweat levels of 8OH2′dG; assay type: in vivo, human
Text: as §1

Q: For `Nc1ccccc1` [aniline], which “Urine levels of 8OH2′dG” value [1] is on record?
A: The value was “significantly increased”.

Q: With `O=C(O)CC[N+](=O)[O-]` [3NP, 3 nitro propionic acid] as the molecule, how does the “rate of damage after the toxin was removed” value (C. Elegans; after exposure) read?
A: The value was “still maintained at a higher level”.

Q: And the “rate of DNA damage during replication” value (C. Elegans; toxin exposure)?
A: The value was “increased”.

Q: With Tocopherol as the molecule, how does the “effect on the levels of 8OH2′dG” value [2] read?
A: Its value is “no effect”.

Q: With `O=C1O[C@H]([C@@H](O)CO)C(O)=C1O` [Ascorbate] as the molecule, how does the “effect on the levels of 8OH2′dG” value [2] read?
A: The value was “no effect”.

Q: Which “Urine levels of 8OH2′dG” value [1] does the source give for `Cc1ccccc1N` [o-toluidine] here?
A: Its value is “significantly increased”.

Q: For `Nc1nc2c(nc(O)n2[C@H]2C[C@H](O)[C@@H](CO)O2)c(=O)[nH]1` [8OH2′dG, 8 hydroxy 2′ deoxyguanosine], which “excretion from the cells” value [3] is on record?
A: Its value is “rapid”.

Q: What about the “rate of clearance from the body” value ([4]; CSF, plasma and urinary levels ca 1:10:2000 in ca 100 ALS and control subjects) of the same molecule?
A: The value was “high”.

Q: What about the mode of removal ([4]; saliva or sweat vs. urine levels, plasma of kidney dialysis patients) of the same molecule?
A: Its mode of removal is “urinary excretion is the primary mode of removal”.

Q: Which “Urine levels of 8OH2′dG” value [1] does the source give for `[As]` [arsenic] here?
A: The value was “significantly increased”.
